# Results from patent US5407824A, “Recombinant coryneform bacterium for producing L-tryptophan” (Kyowa Hakko Kogyo Co., Ltd., priority 1989, dated 1995).
# How the values were obtained:
# Format in all cases: biochemical
# [1] = test system: 3-deoxy-D-arabino-heptulosonate-7-phosphate synthase (DS) of the transformant carrying pCGDS1; assay: DS activity, inhibition by phenylalanine and tyrosine, transformant carrying pCGDS1; details: Corynebacterium glutamicum ATCC 13032 carrying pCGDS1 (DS gene from K38)
# Procedure: DS activities of Corynebacterium glutamicum ATCC 13032 and the transformant carrying pCGDS1 were determined according to the method of P. R. Sprinavasan, D. B. Sprinson, et al. [J. Biol. Chem., 234, 716 (1959)].
# [2] = target: T1, anthranilate synthase (AS) of ATCC 39019 strain (Corynebacterium glutamicum, UniProt P06557); assay: AS activity, inhibition by tryptophan, ATCC 39019 strain; details: read-out: Tryptophan concentration effective for 50% inhibition of the AS activity
# T1 construct: endogenous in cells; host or cells: C. glutamicum, strain printed as ATCC 39019 (ATCC 13032 earlier in the same paragraph)
# T1 sequence (P06557 whole entry): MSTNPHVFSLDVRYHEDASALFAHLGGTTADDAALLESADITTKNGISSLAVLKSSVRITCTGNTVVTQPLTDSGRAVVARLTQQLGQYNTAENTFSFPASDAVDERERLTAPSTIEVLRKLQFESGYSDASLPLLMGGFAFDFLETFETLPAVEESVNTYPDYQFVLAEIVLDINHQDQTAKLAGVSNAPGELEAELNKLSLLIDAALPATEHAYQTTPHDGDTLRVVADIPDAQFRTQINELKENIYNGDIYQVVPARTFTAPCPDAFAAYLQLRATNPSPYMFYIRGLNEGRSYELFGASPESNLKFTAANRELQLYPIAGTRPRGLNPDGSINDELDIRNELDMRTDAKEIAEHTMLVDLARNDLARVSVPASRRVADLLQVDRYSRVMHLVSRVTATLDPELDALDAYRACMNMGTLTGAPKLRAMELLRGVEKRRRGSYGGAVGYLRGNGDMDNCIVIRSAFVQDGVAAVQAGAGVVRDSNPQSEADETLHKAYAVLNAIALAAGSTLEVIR
# T1 sequence (P06558 whole entry partner): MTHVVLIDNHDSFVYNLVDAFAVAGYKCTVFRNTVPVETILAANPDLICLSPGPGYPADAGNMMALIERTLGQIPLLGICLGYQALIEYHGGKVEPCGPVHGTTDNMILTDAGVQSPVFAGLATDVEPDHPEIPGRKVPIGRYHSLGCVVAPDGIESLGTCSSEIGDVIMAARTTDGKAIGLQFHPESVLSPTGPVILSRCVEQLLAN
# [3] = target: T2, anthranilate synthase (AS) encoded by pCtrp1 (Corynebacterium glutamicum, UniProt P06557); assay: AS activity, inhibition by tryptophan, TA108 strain carrying pCtrp1; details: read-out: Tryptophan concentration effective for 50% inhibition of the AS activity
# T2 construct: cell enzyme activity
# T2 sequence (P06558 whole entry): as the sequence (P06558 whole entry partner) above
# T2 sequence (P06557 whole entry): as the sequence (P06557 whole entry) above
# Procedure: (§1) AS activities of Corynebacterium glutamicum ATCC 13032 and TA108 strains carrying pCtrp1 or pCtrp57 were determined according to the method of H. Hagino, et al. [Agric. Biol. Chem., 39, 323 (1975)], and their PRT activities were determined according to the method of J. Ito and C. Yanofsky [J. Biol. Chem., 97, 734 (1969)]. AS and PRT activities of TA108 strains carrying pCtrp1 or pCtrp57 were more than 10 times as high as those of ATCC 13032 strain.
# [4] = target: T3, anthranilate synthase (AS) encoded by pCtrp57 (Corynebacterium glutamicum, UniProt P06557); assay: AS activity, inhibition by tryptophan, TA108 strain carrying pCtrp57; details: read-out: Tryptophan concentration effective for 50% inhibition of the AS activity
# T3 construct: cell enzyme activity
# T3 sequence (P06558 whole entry): as the sequence (P06558 whole entry partner) above
# T3 sequence (P06557 whole entry): as the sequence (P06557 whole entry) above
# Procedure: (§2) TA108 strain carrying pCtrp1 was cultured in NB medium containing 10 μg/ml kanamycin till the latter stage of the logarithmic growth phase. The grown cells were collected and washed once with 50 mM Tris-maleate buffer solution (pH 6.0) by centrifugation. The washed cells were treated with 400 μg/ml N-methyl-N'-nitro-N-nitrosoguanidine in 50 mM Tris-maleate buffer solution at room temperature for 20 minutes. The treated cells were washed twice with 50 mM Tris-maleate buffer solution by centrifugation and cultured in NB medium containing 10 μg/ml kanamycin at 30° C. for 16 hours. A plasmid DNA was isolated from the grown cells in the same manner as in (1). TA108 strain was transformed with the plasmid thus obtained in the same manner as in (3), and the kanamycin-resistant Colonies grown on RCGP agar medium containing 200 μg/ml kanamycin were scraped up, and washed twice with physiological saline solution by centrifugation. The washed cells were spread on minimal agar medium M1 containing 3 mg/ml 5FT, and cultured at 30° C. for three days. […]
# (§3) AS activities of Corynebacterium glutamicum ATCC 13032 and TA108 strains carrying pCtrp1 or pCtrp57 were determined according to the method of H. Hagino, et al. [Agric. Biol. Chem., 39, 323 (1975)], and their PRT activities were determined according to the method of J. Ito and C. […]
# [5] = target: T4, anthranilate phosphoribosyl transferase (PRT) of ATCC 39019 strain (Corynebacterium glutamicum, UniProt P06559); assay: PRT activity, inhibition by tryptophan, ATCC 39019 strain; details: read-out: Tryptophan concentration effective for 50% inhibition of the PRT activity
# T4 construct: endogenous in cells; host or cells: C. glutamicum, strain printed as ATCC 39019 (ATCC 13032 earlier in the same paragraph)
# T4 sequence (P06559 1-348): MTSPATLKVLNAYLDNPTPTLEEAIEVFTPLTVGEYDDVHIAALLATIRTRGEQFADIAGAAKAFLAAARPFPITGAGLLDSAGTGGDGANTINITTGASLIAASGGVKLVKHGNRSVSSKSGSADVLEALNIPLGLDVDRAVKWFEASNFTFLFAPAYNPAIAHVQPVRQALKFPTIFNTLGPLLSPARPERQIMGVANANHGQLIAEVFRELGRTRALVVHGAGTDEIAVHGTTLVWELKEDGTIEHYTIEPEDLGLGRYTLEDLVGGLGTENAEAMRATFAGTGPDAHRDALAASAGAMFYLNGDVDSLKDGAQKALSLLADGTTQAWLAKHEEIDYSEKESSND
# [6] = target: T5, anthranilate phosphoribosyl transferase (PRT) encoded by pCtrp1 (Corynebacterium glutamicum, UniProt P06559); assay: PRT activity, inhibition by tryptophan, TA108 strain carrying pCtrp1; details: read-out: Tryptophan concentration effective for 50% inhibition of the PRT activity
# T5 construct: presence of the AS, PRT, TS-α and TS-β genes in the above 11.0 Kb DNA fragment introduced into pCtrp1; expressed in transfected cells; host or cells: C. glutamicum TA108 carrying pCtrp1
# T5 sequence (P06559 1-348): T4 sequence (P06559 1-348)
# Procedure: as §1
# [7] = target: T6, anthranilate phosphoribosyl transferase (PRT) encoded by pCtrp57 (Corynebacterium glutamicum, UniProt P06559); assay: PRT activity, inhibition by tryptophan, TA108 strain carrying pCtrp57; details: read-out: Tryptophan concentration effective for 50% inhibition of the PRT activity
# T6 construct: cell enzyme activity
# Procedure: as §2, §3
smiles,measurement,setting,value
N[C@@H](Cc1ccc(O)cc1)C(=O)O [tyrosine],Inhibition of DS in the transformant carrying pCGDS1,[1],free from inhibition
N[C@@H](Cc1c[nH]c2ccccc12)C(=O)O [tryptophan],IC50,[2],2 µM
same,IC50,[3],8 µM
same,IC50,[4],4000 µM
same,IC50,[5],190 µM
same,IC50,[6],190 µM
same,IC50,[7],4800 µM
N[C@@H](Cc1ccccc1)C(=O)O [phenylalanine],Inhibition of DS in the transformant carrying pCGDS1,[1],free from inhibition
